Data taken from patent US10793568B2, “Hormone receptor modulators for treating metabolic conditions and disorders” (ARDELYX, INC., priority 2016, dated 2020).

Experiments:
[1] = target: ligand binding domain of human FXR (Homo sapiens (Human), UniProt Q96RI1); assay: FXR ligand binding assay (LanthaScreen TR-FRET, SRC2-2 peptide recruitment); details: for pEC50: -log EC50, concentration required to produce 50% activation; for Emax: extent of activation relative to GW4064, read-out: % Efficacy
[2] = target: human Farnesoid X receptor ligand-binding domain/Gal4 DNA binding domain chimera (Homo sapiens (Human), UniProt Q96RI1); assay: Cell-based assay of FXR activation (FXR-UAS-bla HEK 293T beta-lactamase reporter); details: cellular FXR beta-lactamase reporter assay; for Emax: HEK-293T, extent of activation relative to GW4064, read-out: % Efficacy; for EC50: FXR-UAS-bla HEK 293T cells, 16 h, pEC50 = -log EC50
Chain of human Farnesoid X receptor ligand-binding domain/Gal4 DNA binding domain chimera (Q96RI1 262-486, change not shown): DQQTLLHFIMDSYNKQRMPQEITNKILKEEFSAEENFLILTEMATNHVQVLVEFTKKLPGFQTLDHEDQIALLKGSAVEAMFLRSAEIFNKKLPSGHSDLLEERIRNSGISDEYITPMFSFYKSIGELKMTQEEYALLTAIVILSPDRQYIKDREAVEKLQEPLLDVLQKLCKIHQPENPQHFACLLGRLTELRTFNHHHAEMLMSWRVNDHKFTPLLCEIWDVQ
Chain of human Farnesoid X receptor ligand-binding domain/Gal4 DNA binding domain chimera (P04386 1-147 partner): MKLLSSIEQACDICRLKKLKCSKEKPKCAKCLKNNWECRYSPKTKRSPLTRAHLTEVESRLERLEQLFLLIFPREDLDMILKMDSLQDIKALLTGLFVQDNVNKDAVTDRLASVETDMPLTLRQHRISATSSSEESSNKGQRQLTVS
Procedure, shortened: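 HEK 293T cells stably expressing a Gal4-fused human FXR LBD and a UAS-driven beta-lactamase reporter were incubated with serially diluted compounds for 16 h at 37 °C in phenol red-free DMEM with 2% charcoal-stripped FBS. CCF4 FRET read-out: excitation 409 nm, emission 447 nm. pEC50 comes from a 3-parameter logistic fit, and efficacy is given as % of GW4064.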

Chain of ligand binding domain of human FXR (Q96RI1 262-486): as the sequence (Q96RI1 262-486, change not shown) above

| Compound | pEC50 [1] | Emax [1] [%] | Emax [2] [%] | EC50 [2] [nM] |
| --- | --- | --- | --- | --- |
| Cc1cccc(C)c1-c1noc(C2CC2)c1CO[C@@H]1C[C@@H]2C[C@H]1CN2c1nc2c(C)cc(C(=O)O)cc2s1 [Compound I-276, 2-[(1S,4S,5R)-5-{[5-cyclopropyl-3-(2,6-dimethylphenyl)-1,2-oxazol-4-yl]methoxy}-2-azabicyclo[2.2.1]heptan-2-yl]-4-methyl-1,3-benzothiazole-6-carboxylic Acid] | 8.2 | 124 | 114 | 3.98 |
| O=C(O)c1cc(F)c2nc(N3C[C@@H]4C[C@H]3C[C@H]4OCc3c(C4CCC5(CC4)CC5)noc3C3CC3)sc2c1 [Compound I-277, 2-[(1S,4S,5R)-5-[(5-cyclopropyl-3-{spiro[2.5]octan-6-yl}-1,2-oxazol-4-yl)methoxy]-2-azabicyclo[2.2.1]heptan-2-yl]-4-fluoro-1,3-benzothiazole-6-carboxylic Acid] | 8.1 | 106 | 123 | 158 |
| O=C(O)c1cc(OC2CC2)c2nc(N3C[C@@H]4C[C@H]3C[C@H]4OCc3c(C4CCC5(CC4)CC5)noc3C3CC3)sc2c1 [Compound I-278, 4-cyclopropoxy-2-((1S,4S,5R)-5-((5-cyclopropyl-3-(spiro[2.5]octan-6-yl)isoxazol-4-yl)methoxy)-2-azabicyclo[2.2.1]heptan-2-yl)benzo[d]thiazole-6-carboxylic acid] | 7.7 | 96 | 98 | 10 |
| O=C(O)c1cc(C2CCOCC2)c2nc(N3C[C@@H]4C[C@H]3C[C@H]4OCc3c(C4CCC5(CC4)CC5)noc3C3CC3)sc2c1 [Compound I-279] | 7.2 | 112 | 104 | 39.8 |
| O=C(O)c1cc([C@H]2CCOC2)c2nc(N3C[C@@H]4C[C@H]3C[C@H]4OCc3c(C4CCC5(CC4)CC5)noc3C3CC3)sc2c1 [Compound I-280, 2-((1S,4S,5R)-5-((5-cyclopropyl-3-(spiro[2.5]octan-6-yl)isoxazol-4-yl)methoxy)-2-azabicyclo[2.2.1]heptan-2-yl)-4-((R)-tetrahydrofuran-3-yl)benzo[d]thiazole-6-carboxylic acid] | 7.3 | 115 | 105 | 25.1 |
| O=C(O)c1cc([C@@H]2CCOC2)c2nc(N3C[C@@H]4C[C@H]3C[C@H]4OCc3c(C4CCC5(CC4)CC5)noc3C3CC3)sc2c1 [Compound I-281, 2-((1S,4S,5R)-5-((5-cyclopropyl-3-(spiro[2.5]octan-6-yl)isoxazol-4-yl)methoxy)-2-azabicyclo[2.2.1]heptan-2-yl)-4-((S)-tetrahydrofuran-3-yl)benzo[d]thiazole-6-carboxylic acid] | 7.4 | 104 | 105 | 15.8 |
| O=C(O)c1cc(C2CCC2)c2nc(N3C[C@@H]4C[C@H]3C[C@H]4OCc3c(C4CCC5(CC4)CC5)noc3C3CC3)sc2c1 [Compound I-282, 4-cyclobutyl-2-((1S,4S,5R)-5-((5-cyclopropyl-3-(spiro[2.5]octan-6-yl)isoxazol-4-yl)methoxy)-2-azabicyclo[2.2.1]heptan-2-yl)benzo[d]thiazole-6-carboxylic acid] | 7.4 | 100 | 117 | 25.1 |
| O=C(O)c1cc(C2CCCC2)c2nc(N3C[C@@H]4C[C@H]3C[C@H]4OCc3c(C4CCC5(CC4)CC5)noc3C3CC3)sc2c1 [Compound I-283, 4-cyclopentyl-2-((1S,4S,5R)-5-((5-cyclopropyl-3-(spiro[2.5]octan-6-yl)isoxazol-4-yl)methoxy)-2-azabicyclo[2.2.1]heptan-2-yl)benzo[d]thiazole-6-carboxylic acid] | 7 | 114 | 104 | 25.1 |
| O=C(O)c1cc(C2CCC2)c2nc(N3C[C@H]4C[C@@H]3C[C@@H]4OCc3c(-c4c(Cl)cccc4Cl)noc3C3CC3)sc2c1 [Compound I-284, 4-cyclobutyl-2-[(1R,4R,5S)-5-{[5-cyclopropyl-3-(2,6-dichlorophenyl)-1,2-oxazol-4-yl]methoxy}-2-azabicyclo[2.2.1]heptan-2-yl]-1,3-benzothiazole-6-carboxylic Acid] | 9 | 116 | 100 | 3.16 |
| O=C(O)c1cc(C2CCCC2)c2nc(N3C[C@H]4C[C@@H]3C[C@@H]4OCc3c(-c4c(Cl)cccc4Cl)noc3C3CC3)sc2c1 [Compound I-285, 4-cyclopentyl-2-[(1R,4R,5S)-5-{[5-cyclopropyl-3-(2,6-dichlorophenyl)-1,2-oxazol-4-yl]methoxy}-2-azabicyclo[2.2.1]heptan-2-yl]-1,3-benzothiazole-6-carboxylic Acid] | 8.9 | 116 | 100 | 2.51 |
| COc1cc(Cl)c(-c2noc(C3CC3)c2CO[C@@H]2C[C@@H]3C[C@H]2CN3c2nc3c(F)cc(C(=O)O)cc3s2)c(Cl)c1 [Compound I-286, 2-[(1S,4S,5R)-5-{[5-cyclopropyl-3-(2,6-dichloro-4-methoxyphenyl)-1,2-oxazol-4-yl]methoxy}-2-azabicyclo[2.2.1]heptan-2-yl]-4-fluoro-1,3-benzothiazole-6-carboxylic Acid] | 8.7 | 130 | 108 | 39.8 |
| O=C(O)c1cc(F)c2nc(N3C[C@@H]4C[C@H]3C[C@H]4OCc3c(-c4c(Cl)cc(O)cc4Cl)noc3C3CC3)sc2c1 [Compound I-287, 2-[(1S,4S,5R)-5-{[5-cyclopropyl-3-(2,6-dichloro-4-hydroxyphenyl)-1,2-oxazol-4-yl]methoxy}-2-azabicyclo[2.2.1]heptan-2-yl]-4-fluoro-1,3-benzothiazole-6-carboxylic Acid] | 9.2 | 134 | 113 | 63.1 |
| COc1ccccc1-c1noc(C2CC2)c1CO[C@@H]1C[C@@H]2C[C@H]1CN2c1nc2c(F)cc(C(=O)O)cc2s1 [Compound I-288, 2-((1S,4S,5R)-5-((5-cyclopropyl-3-(2-methoxyphenyl)isoxazol-4-yl)methoxy)-2-azabicyclo[2.2.1]heptan-2-yl)-4-fluorobenzo[d]thiazole-6-carboxylic acid] | 8 | 188 | 112 | 3.98 |
| COc1cccc(-c2noc(C3CC3)c2CO[C@@H]2C[C@@H]3C[C@H]2CN3c2nc3c(F)cc(C(=O)O)cc3s2)c1 [Compound I-289, 2-((1S,4S,5R)-5-((5-cyclopropyl-3-(3-methoxyphenyl)isoxazol-4-yl)methoxy)-2-azabicyclo[2.2.1]heptan-2-yl)-4-fluorobenzo[d]thiazole-6-carboxylic acid] | 6.9 | 70 |  | < 31.6 |
| COc1ccc(-c2noc(C3CC3)c2CO[C@@H]2C[C@@H]3C[C@H]2CN3c2nc3c(F)cc(C(=O)O)cc3s2)cc1 [Compound I-290, 2-((1S,4S,5R)-5-((5-cyclopropyl-3-(4-methoxyphenyl)isoxazol-4-yl)methoxy)-2-azabicyclo[2.2.1]heptan-2-yl)-4-fluorobenzo[d]thiazole-6-carboxylic acid] | >4.5 |  |  | < 31.6 |
